From patent publication US8889688B2, “Piperazines as antimalarial agents” (Actelion Pharmaceuticals Ltd., priority 2011, dated 2014)
Like-named read-outs stand apart in the source and are kept apart here.

Test system: erythrocytic stages of P. falciparum NF54
Test: Plasmodium falciparum in vitro assay, [3H] hypoxanthine incorporation
Type: cell-based
Conditions: P. falciparum NF54 in human red blood cells, 48 h + 24 h incubation
Protocol: In Vitro Antimalarial Activity: Plasmodium falciparum In Vitro Assay In vitro activity against erythrocytic stages of P. falciparum in human red blood cells is determined using a [^3H] hypoxanthine incorporation assay. […] Thereafter, the parasite cultures incubated in screening medium containing washed human red blood cells at 2.5% hematocrit (0.3% parasitemia) are added to the serially diluted compounds and incubated in a humidifying atmosphere at 37° C., 4% CO2, 3% O2, and 93% N2. After 48 h, [^3H] hypoxanthine (0.5 μCi) is added to each well of a plate. The plates are incubated for a further 24 h under the same conditions then harvested with a Betaplate cell harvester (Wallac) and washed with distilled water. The dried filters are inserted into a plastic foil with 10 mL of scintillation fluid, and counted in a Betaplate liquid scintillation counter. IC50 values are calculated from sigmoidal inhibition curves using Microsoft Excel.

[1] = Plasmodium falciparum, Erythrocyte, 72 h, screening medium with Albumax (5 g/L), read-out: IC50 on NF54 (with Albumax)
[2] = Plasmodium falciparum, Erythrocyte, 72 h, screening medium with human serum (50% final concentration), read-out: IC50 on NF54 (with 50% Serum)

| SMILES | IC50 [1] [nM] | IC50 [2] [nM] | IC50 (screening medium with Albumax (5 g/L), read-out: IC50 on NF54 (with Albumax)) [nM] | IC50 (screening medium with human serum (50% final concentration), read-out: IC50 on NF54 (with 50% Serum)) [nM] |
| --- | --- | --- | --- | --- |
| COc1ccc(CN2CCN(C(=O)[C@H](Cc3ccccc3)N(Cc3ccc(N4CCN(C(C)=O)CC4)cc3)C(=O)C=Cc3ccc(C(F)(F)F)cc3)CC2)cc1 [Example 63, (S)-N-[4-(4-Acetyl-piperazin-1-yl)-benzyl]-N-{1-benzyl-2-[4-(4-methoxy-benzyl)-piperazin-1-yl]-2-oxo-ethyl}-3-(4-trifluoromethyl-phenyl)-acrylamide] | 3.2 | 17.8 |  |  |
| CC(=O)N1CCN(c2ccc(CN(C(=O)C=Cc3ccc(C(F)(F)F)cc3)[C@@H](Cc3ccccc3)C(=O)N3CCN(Cc4ccc(OC(C)C)cc4)CC3)cc2)CC1 [Example 65, (S)-N-[4-(4-Acetyl-piperazin-1-yl)-benzyl]-N-{1-benzyl-2-[4-(4-isopropoxy-benzyl)-piperazin-1-yl]-2-oxo-ethyl}-3-(4-trifluoromethyl-phenyl)-acrylamide] | 2.8 | 14 |  |  |
| CCOc1ccc(C=CC(=O)N(Cc2ccc(N3CCN(C(C)=O)CC3)cc2)[C@@H](Cc2ccccc2)C(=O)N2CCN(Cc3ccc(N(C)C)cc3)CC2)cn1 [Example 14, (S)-N-[4-(4-Acetyl-piperazin-1-yl)-benzyl]-N-{1-benzyl-2-[4-(4-dimethylamino-benzyl)-piperazin-1-yl]-2-oxo-ethyl}-3-(6-ethoxy-pyridin-3-yl)-acrylamide] | 3.7 | 20 |  |  |
| CC(=O)N1CCN(c2ccc(CN(C(=O)C=Cc3ccc(C(F)(F)F)nc3)[C@@H](Cc3ccccc3)C(=O)N3CCN(Cc4ccc(N(C)CCO)cc4)CC3)cc2)CC1 [Example 51, (S)-N-[4-(4-Acetyl-piperazin-1-yl)-benzyl]-N-[1-benzyl-2-(4-{4-[(2-hydroxy-ethyl)-methyl-amino]-benzyl}-piperazin-1-yl)-2-oxo-ethyl]-3-(6-trifluoromethyl-pyridin-3-yl)-acrylamide] | 10.7 | 29.8 |  |  |
| CC(=O)Nc1ccc(C=CC(=O)N(Cc2ccc(N3CCN(C(C)=O)CC3)cc2)[C@@H](Cc2ccccc2)C(=O)N2CCN(Cc3ccc(N(C)C)cc3)CC2)cc1 [Example 17, (S)-3-(4-Acetylamino-phenyl)-N-[4-(4-acetyl-perazin-1-yl)-benzyl]-N-{1-benzyl-2-[4-(4-dimethylamino-benzyl)-piperazin-1-yl]-2-oxo-ethyl}-acrylamide] |  |  | 4.3 | 39 |
| CC(=O)N1CCN(c2ccc(CN(C(=O)C=Cc3ccc(C(F)(F)F)nc3)[C@@H](Cc3ccccc3)C(=O)N3CCN(Cc4ccc(N(C)C)cc4)CC3)cc2)CC1 [Example 12, (S)-N-[4-(4-Acetyl-piperazin-1-yl)-benzyl]-N-{1-benzyl-2-[4-(4-dimethylamino-benzyl)-piperazin-1-yl]-2-oxo-ethyl}-3-(6-trifluoromethyl-pyridin-3-yl)-acrylamide] | 17 | 74 |  |  |
| CC(=O)Nc1ccc(C=CC(=O)N(Cc2ccc(N3CCN(C(C)=O)CC3)cc2)[C@@H](Cc2ccccc2)C(=O)N2CCN(Cc3ccc(Cl)cc3)CC2)cc1 [Example 37, (S)-3-(4-Acetylamino-phenyl)-N-[4-(4-acetyl-piperazin-1-yl)-benzyl]-N-{1-benzyl-2-[4-(4-chloro-benzyl)-piperazin-1-yl]-2-oxo-ethyl}-acrylamide] | 3.2 | 28 |  |  |
| CC(=O)N1CCN(c2ccc(CN(C(=O)C=Cc3ccc(C(F)(F)F)cc3)[C@@H](Cc3ccccc3)C(=O)N3CCN(Cc4ccc([N+](=O)[O-])cc4)CC3)cc2)CC1 [Example 64, (S)-N-[4-(4-Acetyl-piperazin-1-yl)-benzyl]-N-{1-benzyl-2-[4-(4-nitro-benzyl)-piperazin-1-yl]-2-oxo-ethyl}-3-(4-trifluoromethyl-phenyl)-acrylamide] | 3.5 | 43 |  |  |

The next lines start with results.

| IC50 [1] [nM] | IC50 [2] [nM] | SMILES | IC50 (screening medium with Albumax (5 g/L), read-out: IC50 on NF54 (with Albumax)) [nM] | IC50 (screening medium with human serum (50% final concentration), read-out: IC50 on NF54 (with 50% Serum)) [nM] |
| --- | --- | --- | --- | --- |
| < 3.1 | 17.5 | CC(=O)N1CCN(c2ccc(CN(C(=O)C=Cc3ccc(C)cc3)[C@@H](Cc3ccccc3)C(=O)N3CCN(Cc4ccc(N(C)C)cc4)CC3)cc2)CC1 [Example 67, (S)-N-[4-(4-Acetyl-piperazin-1-yl)benzyl]-N-{1-[4-(4-(dimethylamino)benzyl)piperazin-1-yl]-1-oxo-3-phenylpropan-2-yl}-3-(p-tolyl)acrylamide] |  |  |
| 18 | 62 | CC(=O)N1CCN(c2ccc(CN(C(=O)C=Cc3ccc(C#N)cc3)[C@@H](Cc3ccccc3)C(=O)N3CCN(Cc4ccc(N(C)C)cc4)CC3)cc2)CC1 [Example 71, (S)-N-[4-(4-Acetyl-piperazin-1-yl)benzyl]-3-(4-cyanophenyl)-N-{1-(4-(4-(dimethylamino)benzyl)piperazin-1-yl)-1-oxo-3-phenylpropan-2-yl}acrylamide] |  |  |
| 4 | 21 | CC(=O)N1CCN(c2ccc(CN(C(=O)C=Cc3ccc(C(F)(F)F)cc3)[C@@H](Cc3ccccc3)C(=O)N3CCN(Cc4ccc(N(C)C)cc4)CC3)cc2)CC1 [Example 11, (S)-N-[4-(4-Acetyl-piperazin-1-yl)-benzyl]-N-{1-benzyl-2-[4-(4-dimethylamino-benzyl)-piperazin-1-yl]-2-oxo-ethyl}-3-(4-trifluoromethyl-phenyl)-acrylamide] |  |  |
| 24.6 | 113 | CC(=O)N1CCN(c2ccc(CN(C(=O)C=Cc3ccccc3)[C@@H](Cc3ccccc3)C(=O)N3CCN(Cc4ccc(N(C)C)cc4)CC3)cc2)CC1 [Example 66, (S)-N-[4-(4-Acetyl-piperazin-1-yl)benzyl]-N-{1-(4-(4-(dimethylamino)benzyl)piperazin-1-yl)-1-oxo-3-phenylpropan-2-yl}cinnamamide] |  |  |
| < 3.1 | 17 | COc1ccc(C=CC(=O)N(Cc2ccc(N3CCN(C(C)=O)CC3)cc2)[C@@H](Cc2ccccc2)C(=O)N2CCN(Cc3ccc(N(C)C)cc3)CC2)cc1 [Example 69, (S)-N-[4-(4-Acetyl-piperazin-1-yl)benzyl]-N-{1-(4-(4-(dimethylamino)benzyl)piperazin-1-yl)-1-oxo-3-phenylpropan-2-yl}-3-(4-methoxyphenyl)acrylamide] |  |  |
| 10 | 91 | CC(=O)N1CCN(c2ccc(CN(C(=O)C=Cc3ccc(F)cc3)[C@@H](Cc3ccccc3)C(=O)N3CCN(Cc4ccc(N(C)C)cc4)CC3)cc2)CC1 [Example 72, (S)-N-[4-(4-Acetyl-piperazin-1-yl)benzyl]-N-{1-(4-(4-(dimethylamino)benzyl)piperazin-1-yl)-1-oxo-3-phenylpropan-2-yl}-3-(4-fluorophenyl)acrylamide] |  |  |
| 12 | 46 | COc1ccc(C=CC(=O)N(Cc2ccc(N3CCN(C(C)=O)CC3)cc2)[C@@H](Cc2ccccc2)C(=O)N2CCN(Cc3ccc(N(C)C)cc3)CC2)cn1 [Example 13, (S)-N-[4-(4-Acetyl-piperazin-1-yl)-benzyl]-N-{1-benzyl-2-[4-(4-dimethylamino-benzyl)-piperazin-1-yl]-2-oxo-ethyl}-3-(6-methoxy-pyridin-3-yl)-acrylamide] |  |  |
| 0.7 | 8 | CCCc1ccc(C=CC(=O)N(Cc2ccc(N3CCN(C(C)=O)CC3)cc2)[C@@H](Cc2ccccc2)C(=O)N2CCN(Cc3ccc(N(C)C)cc3)CC2)cc1 [Example 68, (S)-N-[4-(4-Acetyl-piperazin-1-yl)benzyl]-N-{1-(4-(4-(dimethylamino)benzyl)piperazin-1-yl)-1-oxo-3-phenylpropan-2-yl}-3-(4-propylphenyl)acrylamide] |  |  |
| 3.3 | 26 | CC(=O)N1CCN(c2ccc(CN(C(=O)C=Cc3ccc(Cl)cc3)[C@@H](Cc3ccccc3)C(=O)N3CCN(Cc4ccc(N(C)C)cc4)CC3)cc2)CC1 [Example 73, (S)-N-[4-(4-Acetyl-piperazin-1-yl)benzyl]-3-(4-chlorophenyl)-N-{1-(4-(4-(dimethylamino)benzyl)piperazin-1-yl)-1-oxo-3-phenylpropan-2-yl}acrylamide] |  |  |
| < 3.1 | 16 | CC(=O)c1ccc(C=CC(=O)N(Cc2ccc(N3CCN(C(C)=O)CC3)cc2)[C@@H](Cc2ccccc2)C(=O)N2CCN(Cc3ccc(N(C)C)cc3)CC2)cc1 [Example 70, (S)-3-(4-Acetyl-phenyl)-N-[4-(4-acetyl-piperazin-1-yl)benzyl]-N-{1-(4-(4-(dimethylamino)benzyl)piperazin-1-yl)-1-oxo-3-phenylpropan-2-yl}acrylamide] |  |  |
| 18 | 33 | CC(=O)N1CCN(c2ccc(CN(C(=O)C=Cc3ccc(S(C)(=O)=O)cc3)[C@@H](Cc3ccccc3)C(=O)N3CCN(Cc4ccc(C#N)cc4)CC3)cc2)CC1 [Example 26, (S)-N-[4-(4-Acetyl-piperazin-1-yl)-benzyl]-N-{1-benzyl-2-[4-(4-cyano-benzyl)-piperazin-1-yl]-2-oxo-ethyl}-3-(4-methanesulfonyl-phenyl)-acrylamide] |  |  |
